From US5302610A, “Renal-selective biphenylmethyl imidazole angiotensin II antagonists for treatment of hypertension” (G. D. Searle & Co., priority 1991, dated 1994) come the findings set out here.

In test [1] the test system is vascular smooth muscle, AII response (rabbit aortic rings). Description: Assay B: In Vitro Vascular Smooth Muscle Response for AII (rabbit aortic rings). The class given is cell-based, rabbit (male New Zealand white). The conditions noted are these: Oryctolagus cuniculus, 5 min, antagonist 10^-5 M, three rabbits, read-out: Assay B PA2 (converted). The protocol:
Compound of Example #5 was tested for AII antagonist activity in rabbit aortic rings. Male New Zealand white rabbits (2-2.5 kg) were sacrificed using an overdose of pentobarbital and exsanguinated via the carotid arteries. The thoracic aorta was removed, cleaned of adherent fat and connective tissue and then cut into 3-mm ring segments. The endothelium was removed from the rings by gently sliding a rolled-up piece of filter paper into the vessel lumen. The rings were then mounted in a water-jacketed tissue bath, maintained at 37° C., between moveable and fixed ends of a stainless steel wire with the moveable end attached to an FT03 Grass transducer coupled to a Model 7D Grass Polygraph for recording isometric force responses. The bath was filled with 20 ml of oxygenated (95% oxygen/5% carbon dioxide) Krebs solution of the following composition […]: 130 NaCl, 15 NaHCO3, 15 KCl, 1.2 NaH2 PO4, 1.2 MgSO4, 2.5 CaCl2, and 11.4 glucose. The preparations were equilibrated for one hour before approximately one gram of passive tension was placed on the rings. Angiotensin II concentration-response curves were then recorded (3×10^-10 to 1×10^-5 M). […] The effectiveness of the test compound was expressed in terms of pA2 values and were calculated according to H. O. Schild [Br. J. Pharmacol. Chemother., 189-206 (1947)]. […] The test compound was evaluated in aorta rings from three rabbits.

Test [2] has as its system response to angiotensin II (mean arterial pressure). The experiment in a line: Assay E: Mean Arterial Pressure, acute administration with AII infusion. The format is in vivo, male Sprague-Dawley rats, conscious. The conditions noted are these: for Mean Arterial Pressure: n = 6, means±SE. The protocol:
antagonist compound (Ex. #5) and a glutamyl conjugate (Ex. #81) of the Ex. #5 AII antagonist compound to determine the renal selectivity of the conjugate. Male Sprague-Dawley rats (300-350 g body weight) had catheters implanted into the femoral artery and vein under chloral hydrate anesthesia (400 mg/kg, i.p.). After 2 to 4 days of recovery, on the experimental day, a urinary bladder catheter was implanted under methohexital anesthesia (50 mg/kg, i.p.). Rats were placed in a restraint device to allow for urine collection and mean arterial pressure measurements. After 1-2 hours of recovery, in conscious rats, an isotonic saline infusion (50 μl/min) was started and continued for the duration of the experiment. After one hour equilibration to the saline infusion, a 20 minute control urine and mean arterial pressure collection were obtained. Then angiotensin II was infused at 20 ng/min for 25 minutes. After 5 minutes of angiotensin II infusion, a 20 minute experimental collection was made. Finally, 5 minutes after the end of angiotensin II infusion, a 20 minute recovery collection was obtained. In separate groups of rats, vehicle (0.3 ml isotonic saline, i.v. bolus), Example #5 angiotensin II antagonist compound (100 mg/kg, i.v. bolus), or Example #81 conjugate (100 mg/kg, i.v. bolus) was administered 1-2 minutes prior to onset of angiotensin II infusion. […] Results are shown in Tables XIII and XIV and also in FIGS. 3 and 4. Data are presented as means±SE. Repeated measures analysis of variance was used for main effects and interactions and Tukey's HSD test was used for pairwise comparisons among means. Statistical significance was defined as p<0.05.

Test [3] concerns the target smooth muscle angiotensin II receptor. Description: Assay A: Angiotensin II Binding Activity. The note with it: rat uterine membranes, 25° C., 60 min; read-out: Assay A IC50 (50% displacement of specifically bound 125I-AII). The protocol: Other chemicals were obtained from Sigma Chemical Co. This assay was carried out according to the method of Douglas et al [Endocrinology, 106, 120-124 (1980)]. Rat uterine membranes were prepared from fresh tissue. All procedures were carried out at 4° C. Uteri were stripped of fat and homogenized in phosphate-buffered saline at pH 7.4 containing 5 mM EDTA. The homogenate was centrifuged at 1500×g for 20 min., and the supernatant was recentrifuged at 100,000×g for 60 min. The pellet was resuspended in buffer consisting of 2 mM EDTA and 50 mM Tris-HCl (pH 7.5) to a final protein concentration of 4 mg/ml. […] The reaction was initiated by the addition of membrane protein and the mixture was incubated at 25° C. for 60 min. The incubation was terminated with ice-cold 50 mM Tris-HCl (pH 7.5) and the mixture was filtered to separate membrane-bound labelled peptide from the free ligand. The incubation tube and filter were washed with ice-cold buffer. Filters were assayed for radioactivity in a Micromedic gamma counter. Nonspecific binding was defined as binding in the presence of 10 μM of unlabelled AII. Specific binding was calculated as total binding minus nonspecific binding. […] Binding data were analyzed by a nonlinear least-squares curve fitting program.

The IC50 is the midpoint of a concentration-inhibition curve. As for `CCCCc1nc(Cl)c(CO)n1Cc1ccc(-c2ccccc2C(=O)O)cc1` [Example 5], in test [1], the Kb was 74.1 nM. Besides, the “Mean Arterial Pressure” value is reported as 124 ± 7 mm Hg in test [2] (100 mg/kg i.v. bolus, Recovery after AII infusion); 125 ± 7 mm Hg in test [2] (100 mg/kg i.v. bolus, during AII infusion 20 ng/min, * in table); 123 ± 5 mm Hg in test [2] (Control period (before dosing)). In test [2] (100 mg/kg, i.v. bolus, AII 20 ng/min), the “mean arterial pressure response to angiotensin II” value was “prevented both responses to angiotensin II”. Besides, the IC50 in test [3] was 216 ± 45 nM.
